Measured values as given in ChEMBL document CHEMBL3399925, “Synthesis and antimycobacterial properties of ring-substituted 6-hydroxynaphthalene-2-carboxanilides” (Bioorg Med Chem, 2015).
≈ marks a conversion by molar mass, not a printed value.

How the values were obtained:
[1] = Lipophilicity, log K of the compound by HPLC method; type: physicochemical
[2] = system: Mycobacterium tuberculosis; assay: microbe, parasite or virus in culture; type: functional; settings: H37Ra ATCC 25177, 168 h
Description: Antimycobacterial activity against Mycobacterium tuberculosis H37Ra ATCC 25177 incubated for 7 days by alamar blue assay

[3] = system: Mycobacterium avium complex sp.; assay: Antimycobacterial activity against Mycobacterium avium complex isolate CIT19/06 incubated for 5 days by alamar blue assay; type: functional; settings: isolate CIT19/06, 120 h
[4] = system: Mycobacterium avium subsp. paratuberculosis; assay: Antimycobacterial activity against Mycobacterium avium subsp. paratuberculosis isolate CIT03 incubated for 11 days by alamar blue assay; type: functional; settings: isolate CIT03, 264 h
THP-1 = assay: Cytotoxicity against human THP1 cells after 24 hrs by WST1 assay; type: cell-based; settings: THP-1, 24 h
[5] = system: Mycobacterium tuberculosis; assay: Antimycobacterial activity against Mycobacterium tuberculosis H37Ra ATCC 25177 assessed as cell viability at 8 ug/ml incubated for 7 days by MTT assay; type: functional

Structure (SMILES)	log K [1]	MIC90 [2] [µM]	MIC90 [3] [µM]	MIC90 [4] [µM]	IC50 (THP-1) [µM]	Activity [5] [%]
O=C(Nc1ccccc1)c1ccc2cc(O)ccc2c1	0.6612	30 (≈ 7.9 µg/mL)	57 (≈ 15 µg/mL)	30 (≈ 7.9 µg/mL)	> 30	
O=C(Nc1ccccc1Cl)c1ccc2cc(O)ccc2c1	0.6777	27 (≈ 8.04 µg/mL)	50 (≈ 14.9 µg/mL)	840 (≈ 250 µg/mL)	> 30	38
O=C(Nc1cccc(Cl)c1)c1ccc2cc(O)ccc2c1	0.7684	27 (≈ 8.04 µg/mL)	101 (≈ 30.1 µg/mL)	840 (≈ 250 µg/mL)		46.5
O=C(Nc1ccccc1[N+](=O)[O-])c1ccc2cc(O)ccc2c1	0.8553	97 (≈ 29.9 µg/mL)	195 (≈ 60.1 µg/mL)	26 (≈ 8.02 µg/mL)	> 30	
Cc1cccc(NC(=O)c2ccc3cc(O)ccc3c2)c1	0.6086	29 (≈ 8.04 µg/mL)	54 (≈ 15 µg/mL)	29 (≈ 8.04 µg/mL)	> 30	
O=C(Nc1ccccc1C(F)(F)F)c1ccc2cc(O)ccc2c1	0.5623	91 (≈ 30.1 µg/mL)	181 (≈ 60 µg/mL)	377 (≈ 125 µg/mL)		
COc1ccccc1NC(=O)c1ccc2cc(O)ccc2c1	0.6039	27 (≈ 7.92 µg/mL)	51 (≈ 15 µg/mL)	27 (≈ 7.92 µg/mL)	> 30	
O=C(Nc1ccc(Cl)cc1)c1ccc2cc(O)ccc2c1	0.7947	27 (≈ 8.04 µg/mL)	202 (≈ 60.1 µg/mL)	50 (≈ 14.9 µg/mL)	> 30	43.8
O=C(Nc1ccc(F)cc1)c1ccc2cc(O)ccc2c1	0.6726	28 (≈ 7.88 µg/mL)	213 (≈ 59.9 µg/mL)	53 (≈ 14.9 µg/mL)		
Cc1ccc(NC(=O)c2ccc3cc(O)ccc3c2)cc1	0.6227	29 (≈ 8.04 µg/mL)	451 (≈ 125 µg/mL)	29 (≈ 8.04 µg/mL)	> 30	
Cc1ccccc1NC(=O)c1ccc2cc(O)ccc2c1	0.369	29 (≈ 8.04 µg/mL)	29 (≈ 8.04 µg/mL)	29 (≈ 8.04 µg/mL)	> 30	
O=C(Nc1cccc(F)c1)c1ccc2cc(O)ccc2c1	0.5766	28 (≈ 7.88 µg/mL)	53 (≈ 14.9 µg/mL)	53 (≈ 14.9 µg/mL)		
COc1ccc(NC(=O)c2ccc3cc(O)ccc3c2)cc1	0.3313	27 (≈ 7.92 µg/mL)	852 (≈ 250 µg/mL)	27 (≈ 7.92 µg/mL)	> 30	69
O=C(Nc1ccccc1F)c1ccc2cc(O)ccc2c1	0.4921	107 (≈ 30.1 µg/mL)	107 (≈ 30.1 µg/mL)	53 (≈ 14.9 µg/mL)		
O=C(Nc1ccccc1Br)c1ccc2cc(O)ccc2c1	0.7486	175 (≈ 59.9 µg/mL)	88 (≈ 30.1 µg/mL)	23 (≈ 7.87 µg/mL)	> 30	
O=C(Nc1ccc([N+](=O)[O-])cc1)c1ccc2cc(O)ccc2c1	0.5911	26 (≈ 8.02 µg/mL)	49 (≈ 15.1 µg/mL)	97 (≈ 29.9 µg/mL)		
O=C(Nc1ccc(Br)cc1)c1ccc2cc(O)ccc2c1	0.8884	23 (≈ 7.87 µg/mL)	1460 (≈ 500 µg/mL)	731 (≈ 250 µg/mL)		
CO[C@H]1/C=C/O[C@@]2(C)Oc3c(C)c(O)c4c(O)c(c(/C=N/N5CCN(C)CC5)c(O)c4c3C2=O)NC(=O)/C(C)=C\C=C\[C@H](C)[C@H](O)[C@@H](C)[C@@H](O)[C@@H](C)[C@H](OC(C)=O)[C@@H]1C [RIFAMPIN]		10 (≈ 8.23 µg/mL)	10 (≈ 8.23 µg/mL)	109 (≈ 89.7 µg/mL)		
O=C(Nc1cccc(C(F)(F)F)c1)c1ccc2cc(O)ccc2c1	0.9558	24 (≈ 7.95 µg/mL)	91 (≈ 30.1 µg/mL)	24 (≈ 7.95 µg/mL)	> 30	42.9
O=C(Nc1ccc(C(F)(F)F)cc1)c1ccc2cc(O)ccc2c1	1.0133	24 (≈ 7.95 µg/mL)	91 (≈ 30.1 µg/mL)	91 (≈ 30.1 µg/mL)	> 30	
O=C(Nc1cccc(Br)c1)c1ccc2cc(O)ccc2c1	0.8767	23 (≈ 7.87 µg/mL)	175 (≈ 59.9 µg/mL)	23 (≈ 7.87 µg/mL)	> 30	41.2
COc1cccc(NC(=O)c2ccc3cc(O)ccc3c2)c1	0.4463	27 (≈ 7.92 µg/mL)	102 (≈ 29.9 µg/mL)	27 (≈ 7.92 µg/mL)	> 30	62.2
O=C(Nc1cccc([N+](=O)[O-])c1)c1ccc2cc(O)ccc2c1	0.8533	26 (≈ 8.02 µg/mL)	97 (≈ 29.9 µg/mL)	26 (≈ 8.02 µg/mL)	> 30	
NNC(=O)c1ccncc1 [ISONIAZID]		58 (≈ 7.95 µg/mL)	3650 (≈ 500 µg/mL)	1820 (≈ 250 µg/mL)		
